# From patent publication US11555009B2, “2-(substituted benzene matrix) aromatic formate FTO inhibitor, preparation method therefor, and applications thereof” (SHANGHAI INSTITUTE OF MATERIA MEDICA, CHINESE ACADEMY OF …, priority 2017, dated 2023)
# Columns and labels:
# [1] = molecular target: FTO (Homo sapiens (Human), UniProt Q9C0B1); assay: FTO enzyme inhibition (m6A dsDNA substrate, DpnII digestion, gel readout); type: biochemical; settings: for inhibition at 50 µM: read-out: Inhibition rate; for Inhibition rate: in vitro inhibition rate on FTO, compound at 50 μM
# Sequence of FTO (Q9C0B1 whole entry): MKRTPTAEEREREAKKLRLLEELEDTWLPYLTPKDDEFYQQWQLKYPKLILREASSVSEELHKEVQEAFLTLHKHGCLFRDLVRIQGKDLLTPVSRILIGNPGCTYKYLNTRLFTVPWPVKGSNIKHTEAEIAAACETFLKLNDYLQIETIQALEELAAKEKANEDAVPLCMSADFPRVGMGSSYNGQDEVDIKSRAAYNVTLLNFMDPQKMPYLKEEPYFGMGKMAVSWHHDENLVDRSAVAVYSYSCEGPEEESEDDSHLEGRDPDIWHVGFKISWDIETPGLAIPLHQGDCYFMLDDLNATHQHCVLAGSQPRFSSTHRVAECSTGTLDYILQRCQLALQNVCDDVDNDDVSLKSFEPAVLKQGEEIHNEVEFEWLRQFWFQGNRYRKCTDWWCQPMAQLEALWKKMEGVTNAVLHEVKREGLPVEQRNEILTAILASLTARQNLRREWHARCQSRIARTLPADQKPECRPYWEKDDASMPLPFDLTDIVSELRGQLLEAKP
# Protocol: High purity FTO protein was obtained by nickel column affinity chromatography purification.
# After incubation at room temperature for 2 hrs, the reaction system was then slowly heated to 65° C. to inactivate, and 1 μM 39 nt of antisense strand DNA was added to anneal, thereby forming double strands. […] After Gel-Red dyeing, photos were taken with gel imaging system. The obtained band was subjected to gray scale reading to obtain inhibition rate.
# [2] = system: human bone marrow rhabdomyosarcoma cell line (RH30); assay: MTS cytotoxicity on RH30 cells; type: cell-based; settings: 50 μM, 72 h; for inhibition at 50 µM: Homo sapiens, Rh30, read-out: Inhibition rate (human bone marrow rhabdomyosarcoma cell RH30)
# Protocol: (§1) The following was a study of the cytotoxicity study of compound of 2-(substituted phenylhetero)aromatic formic acid of formula (I) and its derivatives as FTO inhibitors on solid tumors including human small cell lung cancer cell lines (SCLC-21H), human bone marrow rhabdomyosarcoma cell line (RH30) and pancreatic cancer cell Line (KP3):
# (§2) SCLC-21H, RH30 and KP3 solid tumor cell lines were cultivated separately, and seeded at 5000 cells per well in 96 well plates. The cells were cultured until the cells were adherent, and different compounds were added and the cultivation was continued for 72 hours. 10 uL of MTS solution was directly added and the mixture was incubated for 4 h, and the absorbance was measured at 490 nm. The inhibition rate was calculated by using the DMSO group as a control.
# [3] = system: human small cell lung cancer cell lines (SCLC-21H); assay: MTS cytotoxicity on SCLC-21H cells; type: cell-based; settings: 50 μM, 72 h; for inhibition at 50 µM: Homo sapiens, SCLC-21H, read-out: Inhibition rate (human small cell lung cancer SCLC-21H)
# Protocol: as §1, §2
SMILES,Inhibition rate [1],Inhibition rate (human bone marrow rhabdomyosarcoma cell RH30) [2],Inhibition rate (human small cell lung cancer SCLC-21H) [3],further results
CCCOCCOC(=O)c1ccccc1Nc1c(Cl)cc(-c2c(C)noc2C)cc1Cl [Compound 85],–,–,–,inhibition at 50 µM [1]: 30%
"Cc1noc(C)c1-c1cc(Cl)c(Nc2ccccc2C(=O)O)c(Cl)c1 [Compound 15, 2-((2,6-dichloro-4-(3,5-dimethylisoxazole)phenyl)amino)benzoic acid]",–,–,–,inhibition at 50 µM [2]: 49%; inhibition at 50 µM [3]: 43%
Cc1cc(-c2c(C)noc2C)c(C)cc1Nc1ccccc1C(=O)O [Compound 48],–,51%,63%,–
Cc1noc(C)c1-c1cc(Cl)c(Nc2ccccc2-c2noc(=O)[nH]2)c(Cl)c1 [Compound 27],–,50%,14%,IC50 [1]: < 1 µM
O=C(O)c1cc(F)ccc1Nc1c(Cl)cc(-c2ccc(F)cc2)cc1Cl [Compound 72],–,37%,64%,–
Cc1n[nH]cc1-c1cc(Cl)c(Nc2nccnc2C(=O)O)c(Cl)c1 [Compound 67],–,41%,33%,–
C#CCOC(=O)c1ccccc1Nc1c(Cl)cc(-c2c(C)noc2C)cc1Cl [Compound 84],–,–,–,inhibition at 50 µM [1]: 34%
Cc1noc(C)c1-c1cc(Cl)c(Nc2ccccc2-c2nn[nH]n2)c(Cl)c1 [Compound 26],–,36%,17%,–
O=C(O)c1ccccc1Nc1c(Cl)cc(-c2ccncc2)cc1Cl [Compound 5],–,–,–,inhibition at 50 µM [2]: 29%; inhibition at 50 µM [3]: 55%; IC50 [1]: < 5 µM
O=C(O)c1ccc(-c2cc(Cl)c(Nc3ccccc3C(=O)O)c(Cl)c2)s1 [Compound 10],–,–,–,IC50 [1]: < 1 µM
O=C(O)c1nccnc1Nc1c(Cl)cc(-c2ccoc2)cc1Cl [Compound 68],–,56%,68%,–
Cc1n[nH]c(C)c1-c1cc(Cl)c(Nc2ccccc2C(=O)O)c(Cl)c1 [Compound 17],–,–,–,inhibition at 50 µM [2]: 39%; inhibition at 50 µM [3]: 25%
CCN(CC)CCOC(=O)c1ccccc1Nc1c(Cl)cc(-c2c(C)noc2C)cc1Cl [Compound 86],–,–,–,inhibition at 50 µM [1]: 31%
COc1cc(-c2c(C)noc2C)cc(OC)c1Nc1ccccc1C(=O)O [Compound 43],–,25%,44%,–
Cc1noc(C)c1-c1cc(Cl)c(Nc2ccccc2C(=O)OCc2oc(=O)oc2C)c(Cl)c1 [Compound 88],–,–,–,inhibition at 50 µM [1]: 34%
O=C(O)c1ccccc1Nc1c(F)cc(-c2cn[nH]c2)cc1F [Compound 36],28%,–,–,–
O=C(O)c1cccnc1Nc1c(Cl)cc(-c2ccccc2)cc1Cl [Compound 60],–,72%,71%,–
Cc1noc(C)c1-c1cc(Cl)c(Nc2ccccc2C(=O)O)c(Cl)c1 [Compound 28],–,21%,32%,–
COc1cc(-c2cn[nH]c2)cc(OC)c1Nc1ccccc1C(=O)O [Compound 41],–,28%,35%,–
Cc1noc(C)c1-c1cc(Cl)c(Nc2ccccc2C(=O)O)c(Cl)c1 [Compound 29],–,47%,46%,–
O=C(O)c1ccccc1Nc1c(F)cc(-c2ccncc2)cc1F [Compound 37],31%,21%,60%,–
Cc1noc(C)c1-c1cc(Cl)c(Nc2ccccc2C(=O)O)c(Cl)c1 [Compound 30],–,32%,33%,–
Cc1noc(C)c1-c1cc(Cl)c(Nc2ccc(F)cc2C(=O)O)c(Cl)c1 [Compound 69],–,29%,50%,–
O=C(O)c1ccccc1Nc1c(Cl)cc(-c2ccn[nH]2)cc1Cl [Compound 2],–,–,–,IC50 [1]: < 5 µM; inhibition at 50 µM [1]: 80%
O=C(O)c1ccccc1Nc1c(Cl)cc(-c2cc(O)cc(O)c2)cc1Cl [Compound 1],–,–,–,IC50 [1]: 0.7 µM; inhibition at 50 µM [1]: 85%
COc1cc(OC)cc(-c2cc(Cl)c(Nc3ncccc3C(=O)O)c(Cl)c2)c1 [Compound 61],–,52%,44%,–
O=C(O)c1nccnc1Nc1c(Cl)cc(-c2ccncc2)cc1Cl [Compound 66],–,53%,48%,–

# More lines, main results first:
Inhibition rate [1],SMILES,Inhibition rate (human bone marrow rhabdomyosarcoma cell RH30) [2],Inhibition rate (human small cell lung cancer SCLC-21H) [3],further results
100%,Cc1cc(-c2ccncc2)cc(C)c1Nc1ccccc1C(=O)O [Compound 46],41%,66%,–
35%,Cc1noc(C)c1-c1cc(Cl)c(Nc2ncccc2C(=O)NO)c(Cl)c1 [Compound 63],68%,70%,–
75%,Cc1noc(C)c1-c1cc(Cl)c(Nc2ccc([N+](=O)[O-])cc2C(=O)O)c(Cl)c1 [Compound 74],32%,38%,–
45%,O=C(O)c1ccccc1Nc1c(Cl)cc(C2CCNCC2)cc1Cl [Compound 56],–,–,–
100%,Cc1noc(C)c1-c1cc(O)c(Nc2ccccc2C(=O)O)c(O)c1 [Compound 40],–,–,–
100%,Cc1cc(-c2c(C)noc2C)cc(C)c1Nc1ccccc1C(=O)O [Compound 44],24%,47%,–
70%,O=C(O)c1cc(F)ccc1Nc1c(Cl)cc(-c2cncnc2)cc1Cl [Compound 71],–,–,–
100%,O=C(O)c1ccccc1Nc1cc(F)c(-c2ccncc2)c(F)c1 [Compound 49],51%,20%,–
84%,O=C(O)c1cc(F)ccc1Nc1c(Cl)cc(-c2cn[nH]c2)cc1Cl [Compound 73],–,–,–
81%,O=C(O)c1cc(F)ccc1Nc1c(Cl)cc(-c2ccncc2)cc1Cl [Compound 70],42%,46%,–
68%,O=C(NO)c1nccnc1Nc1c(Cl)cc(-c2cn[nH]c2)cc1Cl [Compound 64],30%,24%,–
100%,O=C(O)c1cccnc1Nc1c(Cl)cc(-c2ccoc2)cc1Cl [Compound 59],57%,28%,–
58%,Cc1noc(C)c1-c1cc(Cl)c(Nc2ccc(N)cc2C(=O)O)c(Cl)c1 [Compound 75],51%,60%,–
100%,O=C(O)c1ccccc1Nc1c(Cl)cc(N2CCOCC2)cc1Cl [Compound 55],–,–,IC50 [1]: < 5 µM
90%,O=C(O)c1ccccc1Nc1ccc(-c2ccncc2)cc1O [Compound 52],–,–,–
